Assay results taken from BindingDB's records for doi:10.1016/S0045-2068(03)00081-6 (Johns Hopkins University School of Medicine, 2003).

target: Serotonin N-acetyltransferase (Ovis aries) (UniProt Q29495); test: AANAT activity was measured using a spectrophotometric assay in which the enzymatic product CoASH concentration were determined indirectly by monitoring its reaction product with DTNB at 412nm.; conditions: pH 6.8
Sequence (Q29495 whole entry, looked up): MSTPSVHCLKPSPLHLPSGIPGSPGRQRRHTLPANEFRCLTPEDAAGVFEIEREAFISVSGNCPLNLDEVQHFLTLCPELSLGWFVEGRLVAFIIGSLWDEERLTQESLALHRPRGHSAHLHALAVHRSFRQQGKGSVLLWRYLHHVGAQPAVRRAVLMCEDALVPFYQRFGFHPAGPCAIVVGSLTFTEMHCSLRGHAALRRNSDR

Ki [nM]	Compound
360	CC(C)(COP(=O)(O)OP(=O)(O)OC[C@H]1OC(n2cnc3c(N)ncnc32)[C@@H](O)[C@@H]1OP(=O)(O)O)[C@@H](O)C(=O)NCCC(=O)NCCSCCCCCc1c[nH]c2ccccc12 (some centres undefined) [AANAT bisubstrate analog, 4]
310	CC(C)(COP(=O)(O)OP(=O)(O)OC[C@H]1OC(n2cnc3c(N)ncnc32)[C@@H](O)[C@@H]1OP(=O)(O)O)[C@@H](O)C(=O)NCCC(=O)NCCSCCCCc1c[nH]c2ccccc12 (some centres undefined) [AANAT bisubstrate analog, 5]
840	CC(C)(COP(=O)(O)OP(=O)(O)OC[C@H]1OC(n2cnc3c(N)ncnc32)[C@@H](O)[C@@H]1OP(=O)(O)O)[C@@H](O)C(=O)NCCC(=O)NCCSCCCc1c[nH]c2ccccc12 (some centres undefined) [AANAT bisubstrate analog, 6]
5840	CC(C)(COP(=O)(O)OP(=O)(O)OC[C@H]1OC(n2cnc3c(N)ncnc32)[C@@H](O)[C@@H]1OP(=O)(O)O)[C@@H](O)C(=O)NCCC(=O)NCCSCCCNCCc1c[nH]c2ccccc12 (some centres undefined) [AANAT bisubstrate analog, 7]
